Assay results from patent US5004758A, “Water soluble camptothecin analogs useful for inhibiting the growth of animal tumor cells” (priority 1988, dated 1991).
Counter-ions that a name gives are not always drawn.

Columns and labels:
[1] = reported by Wani et al., J. Med. Chem., 30, 1774 (1987); cited from earlier work
L1210 leukemia cells = test: cells; assay type: cell-based, mouse; conditions: Mus musculus, L1210, read-out: In Vitro Activity IC50
Protocol: Cells were exposed continuously upon cloning into medium containing 0.2 percent Noble agar. After incubation at 37° C. in a CO2 incubator for 3 days, colonies were stained with viable cell specific formazan stain and, 24 hours later, were enumerated by a colony counter (Biotran II, New Brunswick Scientific Co., Edison, N.J.) adjusted to identify colonies of more than 50 cells. The concentration which reduced cloning efficiency by 50 percent IC50) was determined by interpolation.

[2] = ip-implanted L1210 leukemia in mice; conditions: mouse, in vivo, ip;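 further: each mouse received 10^6 L1210 cells intraperitoneally, with drug treatment also given by the i.p. route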
Protocol: (§1) For in vivo studies L1210 cells were implanted i.p. (10^6 per mouse)
(§2) and drugs were administered i.p. on Days 1 and 5. Increase in lifespan
(§3) (ILS) was based on median survival time of groups of 6 mice treated at th
maximally tolerated dose of the drugs.

ip L1210 leukemia = test: ip-implanted L1210 leukemia in mice;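 further: each mouse received 10^6 L1210 cells intraperitoneally, with drug treatment also given by the i.p. route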; conditions: ip L1210 (10^6 cells); drug i.p. Days 1 and 5 at maximally tolerated dose
Protocol: as §1, §2, §3
maximally tolerated dose of the drugs.

| Structure (SMILES) | activity in an assay for antitumor activity [1] | IC50 (L1210 leukemia cells) [nM] | MTD [2] [mg/kg] | In Vivo Antitumor Activity ILS (increase in lifespan) (ip L1210 leukemia) [%] |
| --- | --- | --- | --- | --- |
| CCC1(O)C(=O)OCc2c1cc1n(c2=O)Cc2cc3ccc(N)cc3nc2-1 (stereo not shown) [11-amino] | active |  |  |  |
| CCC1(O)C(=O)OCc2c1cc1n(c2=O)Cc2cc3ccc(CN)cc3nc2-1 (stereo not shown) [11-aminomethyl analog] | inactive |  |  |  |
| CCC1(O)C(=O)OCc2c1cc1n(c2=O)Cc2cc3ccc(C#N)cc3nc2-1 (stereo not shown) [11-cyano] | active |  |  |  |
| CCC1(O)C(=O)OCc2c1cc1n(c2=O)Cc2cc3ccc([N+](=O)[O-])cc3nc2-1 (stereo not shown) [11-nitro] | active |  |  |  |
| CC[C@@]1(O)C(=O)OCc2c1cc1n(c2=O)Cc2cc3c(CN(C)C)cccc3nc2-1 [15S, (20S) 9-Dimethylaminomethylcamptothecin] |  | 65 | 15 | 88 |
| CC[C@@]1(O)C(=O)OCc2c1cc1n(c2=O)Cc2cc3cc(C#N)ccc3nc2-1 [16S, 10-Cyanocamptothecin] |  | 80 | 3 | 100 |
| CC[C@@]1(O)C(=O)OCc2c1cc1n(c2=O)Cc2cc3c(CC#N)c(O)ccc3nc2-1 [17S, (20S) 10-Hydroxy-9-cyanomethylcamptothecin] |  | 400 | 12 | > 200 |
| CC[C@@]1(O)C(=O)OCc2c1cc1n(c2=O)Cc2cc3c(CN4CCOCC4)cccc3nc2-1 [18S, (20S) 9-Morpholinomethylcamptothecin] |  | 690 | 13 | 144 |
| CC[C@@]1(O)C(=O)OCc2c1cc1n(c2=O)Cc2cc3cc(CN)ccc3nc2-1 [20S, (20S) 10-Aminomethylcamptothecin Acetate salt] |  | 90 | 92 | 112 |
| CC[C@@]1(O)C(=O)OCc2c1cc1n(c2=O)Cc2cc3c(CCN)c(O)ccc3nc2-1 [22S, (20S) 10-Hydroxy-9-aminoethylcamptothecin Acetate Salt] |  | 360 | 100 | 75 |
